What was measured:
[1] = Inhibitory activity of compound on p24 production in peripheral blood mononuclear cells infected with HIV strain HTLV IIIB wild type.; format: functional; conditions: Homo sapiens
[2] = Inhibitory activity of compound on p24 production in peripheral blood mononuclear cells infected with HIV strain RT-MDR.; format: functional; conditions: Homo sapiens
[3] = biological target: Human immunodeficiency virus type 1 reverse transcriptase (Human immunodeficiency virus 1, UniProt Q72547); test: Inhibition of purified recombinant HIV-1 reverse transcriptase
[4] = Inhibitory activity of compound on p24 production in peripheral blood mononuclear cells infected with HIV strain A17.; format: functional; conditions: Homo sapiens
[5] = Inhibitory activity of compound on p24 production in peripheral blood mononuclear cells infected with HIV strain A17 variant.; format: functional; conditions: Homo sapiens
[6] = Inhibitory activity of compound won p24 production in peripheral blood mononuclear cells infected with HIV strain HTLV IIIB wild type.; format: functional; conditions: Homo sapiens

| IC50 [3] [nM] | SMILES | IC50 [1] [nM] | IC50 [2] [nM] | IC50 [4] [nM] | IC50 [5] [nM] | IC50 [6] [nM] |
| --- | --- | --- | --- | --- | --- | --- |
| 700 | Fc1cccc(CCNC(=S)Nc2ccc(Br)cn2)c1 | < 1 | 20 | – | – | – |
| – | Cc1ccnc2c1NC(=O)c1cccnc1N2C1CC1 [NEVIRAPINE] | – | 5000 | > 100000 | > 100000 | 34 |
| 6400 | Fc1ccc(CCNC(=S)Nc2ccc(Br)cn2)cc1 | – | – | – | – | – |
| 3700 | S=C(NCCC1=CCCCC1)Nc1ccc(Cl)cn1 | 3 | – | – | – | – |
| 700 | S=C(NCCc1ccccc1Cl)Nc1ccc(Br)cn1 | < 10 | 4 | – | – | – |
| – | S=C(NCCc1ccccn1)Nc1ccc(Br)cn1 [TROVIRDINE] | 7 | 20 | – | – | – |
| – | Cc1cn([C@H]2C[C@H](N=[N+]=[N-])[C@@H](CO)O2)c(=O)[nH]c1=O [ZIDOVUDINE] | 4 | 150 | 6 | 4 | – |
| – | CC(C)Nc1cccnc1N1CCN(C(=O)c2cc3cc(NS(C)(=O)=O)ccc3[nH]2)CC1 [DELAVIRDINE] | 9 | 400 | 50000 | > 100000 | – |

| SMILES | IC50 [3] [nM] | IC50 [1] [nM] | IC50 [2] [nM] | IC50 [4] [nM] | IC50 [5] [nM] | IC50 [6] [nM] |
| --- | --- | --- | --- | --- | --- | --- |
| COc1ccc(OC)c(CCNC(=S)Nc2ccc(Br)cn2)c1 | 100 | < 1 | 5 | 100 | 11000 | – |
| CCOCn1c(Cc2ccccc2)c(C(C)C)c(=O)[nH]c1=O [EMIVIRINE] | 800 | – | 300 | – | – | – |
| Fc1ccccc1CCNC(=S)Nc1ccc(Br)cn1 | 600 | < 10 | 5 | 200 | 41000 | – |

— ChEMBL document CHEMBL1131738, “Rational design of N-[2-(2,5-dimethoxyphenylethyl)]-N'-[2-(5-bromopyridyl)]-thiourea (HI-236) as a potent non-nucleoside inhibitor of drug-resistant human immunodeficiency virus” (Bioorg Med Chem Lett, 1999)
